# Experiments:
# [1] = system: lyso-PA acyl transferase (LPAAT); experiment: Inhibition of LPAAT shown by the invention assay; format: cell-based, human
# Protocol: (§1) This example also illustrates the method of the invention.
# (§2) Human glomerular mesangial cells were incubated with IL-1 for various time periods of 5-60 seconds and the cells were fixed in ice-cold methanol, and the lipids extracted using chloroform:methanol 2:1 (v/v). It is very important that the fixing/extraction process be conducted quickly so that the decomposition of unstable intermediates is halted.
# (§3) The extracts were subjected to HPLC on a Rainin mu-Porasil column with a 3:4 hexane:propanol organic carrier and a 1-10% water gradient during the first 10 minutes of separation. The relative concentration of each lipid species is determined using absorption at 206 nm (A206), which follows unsaturated acyl content of lipid species. […] The absolute mass of each lipid species is determined by isolation of the lipid using a fraction collector, repurification on the HPLC column. Determination of phospholipid phosphorus is as nmoles/mg cellular protein. Protein concentration is determined using the Bradford technique.
# (§4) Thus, the lyso PA that accumulates contains high levels of unsaturated fatty acids. Pentoxifylline in a dose range greater than 500 μM results in inhibition both of phosphatidate phosphohydrolase and of lyso PA acyl transferase.
# [2] = system: phosphatidic acid phosphohydrolase (PAPH); experiment: Inhibition of PAPH shown by the invention assay; format: cell-based, human
# Protocol: as §1, §2, §3, §4
# [3] = system: NIH3T3 cell line (D5C3) transformed with temperature-sensitive v-abl; experiment: Blocking transformed phenotype of D5C3 cells; format: cell-based, murine
# [4] = system: Human glomerular mesangial cells stimulated with IL-1; experiment: Invention assay: HPLC of lipids (PA, DAG) from mesangial cells stimulated with IL-1; format: cell-based
# Protocol: The compounds of Formula I are shown to modulate the effects of primary stimuli which elevate levels of the relevant subspecies of PA and DAG using the assay system of the invention. In general for the assay, the cells to be tested are first incubated with the primary stimulating agent for various time periods and fixed in ice-cold methanol. The lipids are extracted using, for example, chloroform:methanol 2:1 (v/v), and the extracts are then subjected to HPLC as described by Bursten and Harris, Biochemistry (1991). In this method, a Rainin mu-Porasil column is used with a 3:4 hexane:propanol organic carrier and a 1-10% water gradient during the first 10 minutes of separation. Detection of the peaks in the elution pattern is by absorption in the range of ultraviolet which detects isolated double bonds. Thus, the relevant peaks of unsaturated PA and DAG are shown in the elution pattern. It is important to note that the assay method permits discrimination between various forms of PA and DAG so that those relevant to the pathway affected by the compounds of Formula I can be measured directly. Confirmation of the nature of the acyl substituents of these components is accomplished using fast-atom bombardment mass spectroscopy. Thus, the relevant unsaturated (non-arachidonic) PA and DAG subspecies may be detected. The time periods employed are 5-60 seconds after stimulation with the primary stimulus, such as a cytokine. This technique permits assessment of the levels of various lipid components as a function of time.
# To test the effect of the compounds of the invention, the candidate compound is included in the initial incubation at various concentrations. Fixing, extraction and HPLC are conducted as above. The effect of the candidate compound is then reflected in a lowering of the relevant PA and DAG levels as compared to the cells without candidate in the control as illustrated hereinbelow.
# as §2, §3
# After contacting HMC with 10^-11 M interleukin-1, a marked redistribution of phospholipids and metabolites is apparent within 5 seconds (FIG. 2), including a significant increase in PA and DAG. FIGS. 3 and 4 show the HPLC after stimulation with IL-1 for 15 seconds and 60 seconds, respectively. PA has been converted into DAG by action of phosphatidate phosphohydrolase at 15 seconds; but the PA peak reappears after 60 seconds.
# The HMC were also reacted with 10^-11 M IL-1 in the presence of various concentrations of pentoxifylline. […] A large peak representing pentoxifylline is present.
# [5] = system: NIH3T3 murine fibroblast cells transformed with a mutated K-ras; experiment: Growth and soft agar colonies of K-ras transformed NIH3T3 cells in vitro; format: cell-based; details: concentrations at or greater than 0.5 mM
# Protocol: Additionally, NIH3T3 murine fibroblast cells transformed with a mutated K-ras (codon 12 Gly-Val) were tested in vitro and in nude mice.
# [6] = system: SV40 T-antigen-transformed human kidney mesangial cells; experiment: Tritiated thymidine uptake of transformed mesangial cells with rhIL-1 or TNFα; format: cell-based
# Protocol: SV40 T-antigen-transformed human kidney mesangial cells were cultured under standard conditions with rhIL-1 or with TNFα with and without pentoxifylline (PTX). Transformed mesangial cells grow independently of added growth factors, but IL-1 and TNFα are the normal proliferative signals for mesangial cells. As was shown in Example 1, when IL-1 is added to kidney mesangial cells, within 30 seconds LPAAT and PAPH are activated; the effect of both of these enzymes is inhibited by pentoxifylline at 1 mM. In this experiment, the growth of the treated cells was measured using tritiated thymidine uptake.
# [7] = system: human leukemic cell line (Mo7e); experiment: GM-CSF stimulated colony formation of Mo7e cells; format: cell-based; details: semisolid medium, colonies counted after 10 days
# Protocol: The human leukemic cell line (Mo7e) is dependent on added granulocyte-macrophage colony-stimulating factor (GM-CSF) for growth. Mo7e cells were cultured in semisolid medium with and without pentoxifylline (PTX) and rhGM-CSF. Colonies were counted 10 days after culture initiation under an inverted microscope. […] PTX thus prevents the up-regulation of activation-associated genes which inhibit proliferation.
# [8] = system: TNFα transcripts in U937 cells; experiment: Northern blot of TNFα transcripts in LPS-induced U937 cells; format: cell-based; details: 1 mM PTX, LPS three hours
# [9] = system: IL-6 transcripts in bone marrow stromal cells; experiment: Northern blot of IL-6 transcripts in bone marrow stromal cells; format: cell-based; details: three-hour exposure, increasing concentrations
# [10] = system: Steel factor transcripts in marrow stromal cell lines; experiment: Northern blot of Steel factor transcripts in marrow stromal cell lines; format: cell-based; details: three-hour incubation, passaged or cloned (CDCL) lines
# CD3-positive lymphocytes = experiment: Proliferation and transcripts of anti-CD3 stimulated lymphocytes; format: cell-based
# Protocol: In these experiments, freshly isolated, CD2-positive cells were stimulated by a solid-phase monoclonal antibody to acquire a CD3 phenotype, and then PTX was added. […] The block in proliferation could not be overcome by addition of either tumor necrosis factor (FIGS. 20 and 21) or IL-1 (FIG. 21). […] The cytokines and PTX were added at culture inception and the cells were harvested after 5 days.
# [11] = system: IL-8 mRNA in U937 and THP1; experiment: Northern blot of IL-8 mRNA in monocytic cell lines induced by lipopolysaccharide or GM-CSF; format: cell-based
# Protocol: The murine fibrosarcoma cell line, L929, was also tested as an indicator for assays of TNF cytotoxicity. Cell growth was assayed by crystal violet staining using optical density as a measure of growth. […] Finally, two monocytic cell lines, U937 and THP1, were used to test the effect of pentoxifylline on the […] of the cytokine IL-8. The cell lines in culture were induced to upregulate IL-8 production by lipopolysaccharide or GM-CSF.
# T cell proliferation = details: Singer et al., cited from earlier work
# [12] = system: patients undergoing allogeneic bone marrow transplant; experiment: Preliminary study in allogeneic bone marrow transplant patients; format: in vivo, human; details: first 30 days post-transplant
# Protocol: A preliminary study was conducted on patients undergoing allogeneic bone marrow transplant for multiple myeloma, for lymphoid malignancies, or for advanced stage CML or AML. Prednisone is often administered as an immunosuppressant in all experimental groups. In the study, these patients received the drugs for a minimum of 3 days to a maximum of 7 days prior to starting their preparative regimen while in the outpatient department according to the following regimen:
# PTX: 600 mg p.o. qid at 9 am, 1 pm, 5 pm and 9 pm;
# CIPRO: 500 mg p.o.b.i.d.; and
# PD: 0.5 mg/kg b.i.d. (total 1 mg/kg/day changed to methylprednisolone at an equivalent dose starting on day-1).
# For the duration of therapy, the patients are continued on the study drugs as follows:
# PTX: until day +20 post-transplant then tapered 600 mg/day until off;
# CIPRO: until day 30 post-transplant or day of discharge if sooner than day 30; and
# PD: tapered starting on day 0 over 14 days until off.
# All patients in these studies received PD and cyclosporin as GVHD prophylaxis.
# [13] = system: recipients of matched allogeneic donor marrow; experiment: Matched allogeneic donor trial; format: in vivo, human
# Source text: (§5) They are given steroids to reduce inflammation. […] In this group of patients, GVHD approaches 90%.
# Again, engraftment was improved, toxicity diminished and survival improved as compared either to standard treatment or to treatment with GM-CSF.
# [14] = system: recipients of marrow from unrelated donors; experiment: Unrelated donor trial; format: in vivo, human
# Source text: as §5
# Again, the general results were improved as compared to either standard therapy or GM-CSF.
# [15] = day 0-28, median (mean ± standard deviation)
# [16] = days 0-28, median (mean ± standard deviation)
# [17] = median (mean ± standard deviation)
molecule,measurement,setting,value
C[C@@H](O)CCCCn1c(=O)c2c(ncn2C)n(C)c1=O [CT1501 R],block of lyso-PA AT,[1],blocks
same,block of Ptd Phydr,[2],blocks
O=C(O)c1cn(C2CC2)c2cc(N3CCNCC3)c(F)cc2c1=O [Ciprofloxacin],inhibition of the transformed phenotype,"[3]; ciprofloxacin 50 μg/ml, pentoxifylline 1 mM",significant effect
CC(=O)CCCCn1c(=O)c2c(ncn2C)n(C)c1=O [Pentoxifylline],elevation of PA and DAG by IL-1,"[4]; 1 mM, all time points (15-60 seconds)",abolishes
same,"cyclical formation of PA, and conversion of PA to DAG","[4]; 10^-11 M IL-1, 100 μM pentoxifylline, 15- and 60-second points",no change
same,conversion of PA to DAG,"[4]; 10^-11 M IL-1, 500 μM pentoxifylline, 15 second time point",slight attenuation
same,"elevation in levels of unsaturated, non-arachidonic PA and of the DAG derived from it","[4]; IL-1 stimulation, concentrations greater than 500 μM",obviate
same,LPAAT activated by IL-1,[1]; 1 mM,inhibited
same,inhibition of lyso PA acyl transferase,[1]; dose range greater than 500 μM,inhibition
same,inhibitory effect on LPAAT,[1]; relative to 0.5 mM,evident only at higher concentrations
same,PAPH activated by IL-1,[2]; 1 mM,inhibited
same,inhibition of phosphatidate phosphohydrolase,[2]; dose range greater than 500 μM,inhibition
same,appearance of cells,"[3]; 1 mM, 33° C., 5 days","predominantly non-transformed, fibroblastic appearance"
same,growth,[5]; in vitro,inhibition of growth
same,anchorage-independent growth,[5]; soft agar,suppression
same,growth stimulated by IL-1,[6]; FIG. 13A,arrested growth
same,proliferative effect of TNF,[6]; FIG. 13B,enhances
same,GM-CSF-stimulated growth of colonies,[7],enhanced
same,TNF RNA obtained in response to LPS stimulation,[8],undetectable level
same,production of IL-6 transcripts,[9],increased production
same,levels of Steel factor transcripts,[10],increases
same,thymidine uptake,"CD3-positive lymphocytes; CD2-positive T-cells, monoclonal antibody 64.1, 5 days, FIG. 21",diminished
same,TNF transcripts,"CD3-positive lymphocytes; Northern blot, FIG. 19A",suppression
same,IL-2 receptor transcripts,"CD3-positive lymphocytes; Northern blot, FIG. 19C",suppression
same,synthesis of IL-8 (mRNA),[11],did not inhibit
same,"expression of cell surface antigens (HLA-DR, CD71, CD25, CD69)",T cell proliferation; MLR-stimulated lymphocytes,decreased
same,blocking a proliferative response,T cell proliferation; PTX added after triggering lymphocytes in a mixed lymphocyte culture,still effective
Cc1nc2sccn2c(=O)c1CCN1CCC(=C(c2ccccc2)c2ccc(F)cc2)CC1 [R 50922],HPLC pattern (reappearance of PA after 60 seconds),[4]; IL-1 stimulation,does not alter
GM-CSF: granulocyte-macrophage colony-stimulating factor,platelet transfusion requirements,[12],87±69 units of platelets
same,red blood cell requirements,[12],24.7±24 units of RBCs
same,Day 100 Survival,[13],69%
same,Max Creat,[13]; [15],1.5 (1.8 ± 1.4) mg/dL
same,Units platelets transfused,[13]; [15],74.0 (87 ± 74) units
same,Bili ≥5.0 mg/dL (patients),[13]; days 0-28,44%
same,Creat ≥2.0 mg/dL (patients),[13]; days 0-28,22%
same,Infection 0-28 (patients with positive bacterial blood cultures),[13]; days 0-28,14%
same,Max Bili,[13]; [16],5.0 (8 ± 10) mg/dL
same,ANC ≤100 (days below 100 cells/uL),[13]; [17],5.0 (6 ± 4) days
same,ANC ≥100 (day on which ANC ≥100 cells/uL on two consecutive days),[13]; [17],9.0 (8 ± 6) day
same,"ANC ≥1,000 (day on which ANC ≥1,000 cells/uL on two consecutive days)",[13]; [17],14.0 (16 ± 9) day
same,Day discharge,[13]; [17],24.0 (26 ± 13) day
same,Last RBC day (first day RBC count ≥30% for 7 consecutive days untransfused),[13]; [17],59.0 (63 ± 39) day
same,Last plt day,[13]; [17],23.0 (17 ± 11) day
same,Max Creat,[14]; [15],1.1 (1.4 ± 1.2) mg/dL
same,Units platelets transfused,[14]; [15],92.0 (90 ± 42) units
same,Bili ≥5.0 mg/dL (patients),[14]; days 0-28,46%
same,Creat ≥2.0 mg/dL (patients),[14]; days 0-28,17%
same,Infection 0-28,[14]; days 0-28,7%
same,Max Bili,[14]; [16],5.5 (7 ± 7) mg/dL
same,ANC ≤100 (days below 100 cells/uL),[14]; [17],12 (12 ± 7) days
same,ANC ≥100,[14]; [17],18.5 (18 ± 6) day
same,ANC ≥500,[14]; [17],22.5 (23 ± 4) day
same,"ANC ≥1,000",[14]; [17],26.0 (26 ± 5) day
same,Day initial discharge,[14]; [17],37.0 (37 ± 14) day
same,Last plt day,[14]; [17],24.5 (26 ± 6) day

# Source: patent US5856115A, “Assay for identification therapeutic agents” (priority 1994, dated 1999)
